US20100062441A1, “C-MET MUTATIONS AND USES THEREOF” (priority 2007, published 2010)
Several values for one entry are separate records, joined by “and”; a condition that tells them apart may be missing. Equal entries are not always repeated.

Tests used:
[1] = test system: reactive oxygen species (ROS) in MU melanoma cells; experiment: Reactive oxygen species measurement by DHE immunofluorescence; assay type: cell-based, human; conditions: HGF 40 ng/ml for 7.5 min; DHE
Procedure: 5×10^4 MU melanoma cells were plated in 35 mm petri dishes. After 24 hrs MU Melanoma cells were kept in serum free media containing 0.5% BSA with and without 5 μM SU11274 for 12 hrs. Cells were treated with 40 ng/ml HGF for 7.5 min, then treated with DHE 10 μM (molecular probes Inc, Eugene, Oreg.) for 30 min, after which they were visualized under a fluorescent Olympus microscope IX81, 20× objective, ND3 and Rhodamine filter sets. Fluorescence was then quantified using Image J and graphed.
The endogenous levels of reactive oxygen species (ROS) was also analyzed in MU melanoma cells with and without HGF treatment using DHE by fluorescence microscopy. DHE is a redox sensitive probe that has widely been used to detect intracellular superoxide anion. The relative levels of ROS were increased in response to HGF by 47%, and SU11274 decreased the ROS response to HGF to 3%.

[2] = test system: C. elegans N2 wild type
Procedure: (§1) To examine the effect of human c-met gene expression in C. elegans, both wild-type c-Met cDNA and mutant c-Met cDNA were individually micro-injected into young adult wild type N2 hermaphrodite gonads (gonad syncitium), at a concentration of 25 μg/ml. The constructs for the mutant c-Met cDNA were generated as described above. Control animals (N2) were injected with vector alone. Injected animals were individually cloned and their progeny were observed under dissecting microscope. Progenies were isolated and examined for visible morphological abnormalities such as defects in vulval formation, body morphology and locomotion. Individually cloned transgenic animals were further analyzed for fecundity and viability.
(§2) Animals in the progeny harboring a visible phenotype such as vulva defect, body morphology change, locomotion defect, and paralysis; and animals showing hyperactivity were isolated, individually cloned and examined with dissecting microscope. For detailed analysis of the phenotype, individual animals were mounted on an agar pad and observed under a Nikon Eclipse E600 fluorescence microscope equipped for Nomarski optics. Images were taken by a Hamamatsu Photonics CCD camera, and processed using the Metamorph digital imaging software (Siddiqui et al., Am J Physiol Lung Cell Mol Physiol 286, L1016-26 (2004)).
(§3) To determine whether a c-Met germline mutation alone is sufficient for lung cancer development or whether in order to develop lung cancer development a synergism of c-Met with smoking is necessary, the C. elegans transgenic animals described above were exposed to nicotine. Nicotine response experiments were performed in M9 buffer as previously described by Waggoner, et al. (Waggoner et al., J Neurosci 20, 8802-11 (2000)). Animals were cultured at 20° C. on nematode growth media (NGM) plates seeded with E. coli strain OP50. To examine the nicotine dose response, individual young adult hermaphrodites were placed in 6-well microtiter plate in M9 buffer at different concentrations of nicotine. Following one hour incubation with nicotine medium plates at 20° C., total numbers of eggs laid by each individual animal were counted.

[3] = test system: R988C c-Met transgenic C. elegans
Procedure: as §1, §2, §3

[4] = test system: T1010I c-Met transgenic C. elegans
Procedure: as §1, §2, §3

[5] = test system: wild type human c-Met transgenic C. elegans; conditions: Wt c-Met
Procedure: as §1, §2, §3

[6] = test system: NSCLC; conditions: in combination with chemotherapy; cited from earlier work
[7] = chronic exposure with nicotine (20 μm)
[8] = nicotine (20 μM) for 24 hours or more

Molecule: HGF: hepatocyte growth factor, the ligand for c-Met
- increase of relative levels of ROS [1]: 47%

Molecule: CN1CCCC1c1cccnc1 (stereo not shown) [nicotine]
- Body Shape Changes [2, 7]: 3% and 3 ± 0.21 %
- Growth Arrest [2, 7]: 1.23% and 1.23 ± 0.19 %
- Locomotion Defects [2, 7]: 1% and 1 ± 0.18 %
- Paralysis [2, 7]: 2% and 2 ± 0.02 %
- viability ([2]; in the presence of nicotine): 91.94%
- vulval defects [2, 8]: 2%
- Body Shape Changes [3, 7]: 18% and 18 ± 0.13 %
- Growth Arrest [3, 7]: 22.9% and 22.9 ± 0.41 %
- viability ([3]; in the presence of nicotine): 30.54%
- vulval defects [3, 8]: 15%
- Body Shape Changes [4, 7]: 21% and 21 ± 0.14 %
- Growth Arrest [4, 7]: 29% and 29.0 ± 0.11 %
- viability ([4]; in the presence of nicotine): 4.58%
- vulval defects [4, 8]: 28%
- Body Shape Changes [5, 7]: 12% and 12 ± 0.22 %
- Growth Arrest [5, 7]: 9.72% and 9.72 ± 0.16 %
- Locomotion Defects [5, 7]: 11% and 11 ± 0.09 %
- Paralysis [5, 7]: 8% and 8 ± 0.08 %
- viability ([5]; in the presence of nicotine): 65.06%
- vulval defects [5, 8]: 6%

Molecule: bevacizumab: targeted therapy against VEGF
- enhancement of median overall survival [6]: 2.3 months
